Assay results from patent US11319315B2, “Cyclohexyl acid triazole azoles as LPA antagonists” (BRISTOL-MYERS SQUIBB COMPANY, priority 2017, dated 2022).
Like-named read-outs stand apart in the source and are kept apart here. Values belong to the molecule of their own block, whether it stands above or below them.

Columns and labels:
[1] = system: IPF patients; details: 26-week clinical trial in IPF patients; cited from earlier work
[2] = system: CD-1 female mice; assay: LPA challenge with plasma histamine evaluation (acute in vivo histamine assay); design: species or system mouse; details: 1 mg/kg dose
Experimental: LPA Challenge with Plasma Histamine Evaluation.
Compound is dosed orally p.o. 2 hours to CD-1 female mice prior to the LPA challenge. The mice are then dosed via tail vein (IV) with 0.15 mL of LPA in 0.1% BSA/PBS (2 μg/μL). Exactly 2 minutes following the LPA challenge, the mice are euthanized by decapitation and the trunk blood is collected. These samples are collectively centrifuged and individual 75 μL samples are frozen at −20° C. until the time of the histamine assay.
The plasma histamine analysis was run by standard EIA (Enzyme Immunoassay) methods. Plasma samples were thawed and diluted 1:30 in 0.1% BSA in PBS. The EIA protocol for histamine analysis as outlined by the manufacturer was followed (Histamine EIA, Oxford Biomedical Research, EA #31).
The LPA used in the assay is formulated as follows: LPA (l-oleoyl-2-hydroxy-sn-glycero-3-phosphate (sodium salt), 857130P, Avanti Polar Lipids) is prepared in 0.1% BSA/PBS for total concentration of 2 μg/μL. 13 mg of LPA is weighed and 6.5 mL 0.1% BSA added, vortexed and sonicated for 1 hour until a clear solution is achieved.

[3] = molecular target: T1, human LPA1 (Homo sapiens, UniProt Q92633); assay: LPA1 functional antagonist assay (LPA-induced calcium flux in CHO cells overexpressing human LPA1); assay type: cell-based; details: read-out: hLPA1 IC50
T1 construct: expressed in transfected cells; host or cells: Chinese hamster ovary (CHO) cells
Outline: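 Calcium flux was triggered by 10 nM LPA after 20 min room-temperature compound pre-incubation (final 0.08 nM to 5 μM, 0.5% DMSO) in human LPA1-overexpressing CHO cells carrying calcium dye. Buffer: HBSS with Ca/Mg, 20 mM HEPES, 0.1% fatty-acid-free BSA; IC50s from 4-parameter logistic fits.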

[4] = system: nerve-injured mice; details: pretreatment; cited from earlier work
[5] = system: pancreatic cancer cell lines; details: cited from earlier work
[6] = system: UUO mice; details: cited from earlier work
[7] = system: MCT; details: MCT cells, co-treatment with LPA; cited from earlier work
[8] = system: human foetal lung fibroblasts; details: cited from earlier work
[9] = inhibition of calcium flux induced by 10 nM LPA, CHO cells overexpressing human LPA1

T1 sequence (Q92633 whole entry): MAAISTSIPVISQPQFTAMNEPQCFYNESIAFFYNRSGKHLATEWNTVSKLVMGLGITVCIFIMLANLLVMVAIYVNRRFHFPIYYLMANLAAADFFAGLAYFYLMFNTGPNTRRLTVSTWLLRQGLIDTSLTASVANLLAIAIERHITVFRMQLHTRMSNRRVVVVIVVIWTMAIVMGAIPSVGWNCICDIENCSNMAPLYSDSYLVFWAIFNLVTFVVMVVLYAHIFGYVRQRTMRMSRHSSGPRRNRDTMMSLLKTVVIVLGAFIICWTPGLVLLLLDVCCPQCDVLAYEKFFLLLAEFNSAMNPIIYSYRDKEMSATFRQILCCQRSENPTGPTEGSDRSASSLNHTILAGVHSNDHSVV

IC50 [3]: 681 nM
SMILES: COCCCCCOc1nnn(Cc2c(-c3ccc(O[C@H]4CCC[C@H](C(=O)O)C4)c(C)n3)nnn2C)n1 [Example 406, (1S,3S)-3-({6-[5-({5-[(5-methoxy-pentyl)oxy]-2H-1,2,3,4-tetrazol-2-yl}methyl)-1-methyl-1H-1,2,3-triazol-4-yl]-2-methylpyridin-3-yl}oxy)cyclohexane-1-carboxylic acid]

IC50 [3]: 142 nM
SMILES: COCCOc1nnn(Cc2c(-c3ccc(O[C@H]4CCC[C@H](C(=O)O)C4)c(C)n3)nnn2C)n1 [Example 407, (1S,3S)-3-{[6-(5-{[5-(2-methoxy-ethoxy)-2H-1,2,3,4-tetrazol-2-yl]methyl}-1-methyl-1H-1,2,3-triazol-4-yl)-2-methylpyridin-3-yl]oxy}cyclohexane-1-carboxylic acid]

IC50 [3]: 339 nM
SMILES: Cc1nc(-c2nnn(C)c2Cn2nnc(N(C)CC3CC3)n2)ccc1O[C@H]1CCC[C@H](C(=O)O)C1 [Example 408, (1S,3S)-3-({6-(5-({5-[(cyclopropylmethyl)(methyl)amino]-2H-1,2,3,4-tetrazol-2-yl}methyl)-1-methyl-1H-1,2,3-triazol-4-yl]-2-methylpyridin-3-yl}oxy)cyclohexane-1-carboxylic acid]

IC50 [3]: 1920 nM
SMILES: Cn1nnc(-c2ncc(O[C@H]3CCC[C@H](C(=O)O)C3)cc2F)c1CNc1noc(CCC2CC2)n1 [Example 409, (1S,3S)-3-((6-(5-(((5-(2-cyclopropylethyl)-1,2,4-oxadiazol-3-yl)amino)methyl)-1-methyl-1H-1,2,3-triazol-4-yl)-5-fluoropyridin-3-yl)oxy)cyclohexane-1-carboxylic acid]

IC50 [3, 9]: 1440 nM
SMILES: Cc1nc(-c2nnn(C)c2Nc2nc(-c3ccccc3)no2)ccc1O[C@H]1CCC[C@H](C(=O)O)C1 [Example 411, (1 S,3S)-3-((2-methyl-6-(1-methyl-5-((3-phenyl-1,2,4-oxadiazol-5-yl)amino)-1H-1,2,3-triazol-4-yl)pyridin-3-yl)oxy)cyclohexane-1-carboxylic acid]

IC50 [3]: 384 nM
SMILES: Cc1nc(-c2nnn(C)c2Cn2nnc(C3CC3)n2)ccc1O[C@H]1CCC[C@H](C(=O)O)C1 [Example 412, (1S,3S)-3-((6-(5-((5-cyclopropyl-2H-tetrazol-2-yl)methyl)-1-methyl-1H-1,2,3-triazol-4-yl)-2-methyl-pyridin-3-yl)oxy)cyclohexane-1-carboxylic acid]

Further lines, the molecule ahead of its results:

SMILES: Cc1noc(-c2ccc(-c3ccc(C4(C(=O)O)CC4)cc3)cc2)c1NC(=O)O[C@H](C)c1ccccc1 [BMS-986020]
rate of FVC (forced vital capacity) decline [1]: significantly reduce

SMILES: Cc1nc(-c2nnn(C)c2CNc2noc(CC3CC3)n2)ccc1O[C@H]1CCC[C@H](C(=O)O)C1 [Example 70]
histamine, acute in vivo histamine assay in CD-1 mice [2]: −39%
IC50 [3, 9]: 15 nM

SMILES: Cc1nc(-c2nnn(C)c2Cn2nnc(OCC3CC4CCC3C4)n2)ccc1O[C@H]1CCC[C@H](C(=O)O)C1 (stereo partly drawn) [Example 405, (1S,3S)-3-{[6-(5-{[5-({bicyclo[2.2.1]heptan-2-yl}methoxy)-2H-1,2,3,4-tetrazol-2-yl]methyl}-1-methyl-1H-1,2,3-triazol-4-yl)-2-methylpyridin-3-yl]oxy}cyclohexane-1-carboxylic acid]
IC50 [3]: 47 nM

SMILES: Cc1nc(-c2nnn(C)c2CNc2noc(COCCCCF)n2)ccc1O[C@H]1CCC[C@H](C(=O)O)C1 [Example 410, (1S,3S)-3-((6-(5-(((5-((4-fluoro-butoxy)methyl)-1,2,4-oxadiazol-3-yl)amino)methyl)-1-methyl-1H-1,2,3-triazol-4-yl)-2-methylpyridin-3-yl)oxy)cyclohexane-1-carboxylic acid]
IC50 [3]: 43 nM

SMILES: C[C@@H](N)[C@H]1CC[C@H](C(=O)Nc2ccncc2)CC1 [Example Y-27632]
allodynia and hyperalgesia [4]: completely abolished

SMILES: Cc1noc(-c2ccc(CSCCC(=O)O)cc2)c1NC(=O)OC(C)c1ccccc1Cl (centres unmarked) [Ki16425]
LPA-induced and ascites-induced invasion activity ([5]; highly peritoneal metastatic pancreatic cancer cell line): blocked
in vitro migration in response to LPA and peritoneal fluid (ascites) from pancreatic cancer patients ([5]; pancreatic cancer cell lines): effectively blocked
renal fibrosis profile in UUO mice [6]: closely resembled the profile of LPA1 (−/−) mice
LPA-induced CTGF expression [7]: almost completely suppressed
chemotaxis of human foetal lung fibroblasts induced by BAL from IPF patients [8]: blocked
